Measurements taken from patent US10053721B2, “Antimicrobial resistance status determination device and method” (bioMerieux, Inc., priority 2015, dated 2018).
Like-named read-outs stand apart in the source and are kept apart here.

Key:
Type in all cases: cell-based
[1] = system: S. aureus strains; assay: Methicillin-resistant Staphylococcus aureus (MRSA) assay, optical density growth curves; conditions: 6 μg/mL cefoxitin
Experimental: The BacT/ALERT® SA bottles were inoculated as described in Example A. The positive broth dilution for the MRSA Assay was performed as follows: broth containing a S. aureus isolate was diluted 1:20 into glass tubes containing 9.0 mL of pre-warmed CAMBH, 0.05% saponin and ±6 μg/mL cefoxitin. Ten (10) S. aureus strains representing diverse phenotypes were tested (5 resistant and 5 sensitive).
(§1) Each strain was sub-cultured without the drug as a growth control. The resistance assay tubes (15 mL tubes fitted with septum screw-caps for diluting and sampling) were incubated in a custom-built, heated, rocking optical density unit, placed within a resistance module, and time-dependent changes in the optical at 660 nm of each culture tube were measured every 45 seconds for periods of up to 12 hours. To maximize microbial growth and minimize measurement noise, tubes were rocked between +/−18 degrees from horizontal at 36 cycles/min for 30 seconds, then returned to the upright position for 15 seconds before an optical density reading was taken.
To detect MRSA directly from positive blood cultures, 10 broth samples containing S. aureus strains representing diverse phenotypes were sub-cultured for up to 12 hours with and without 6 μg/mL of cefoxitin (5 resistant and 5 sensitive strains).
To better discriminate microbial growth from background increases in media optical density, slopes of the growth curves were calculated and plotted (FIGS. 7B, 7D, and 7F).

[2] = system: K. pneumoniae or E. coli isolates; assay: Carbapenem-resistant Enterobacteriaceae (CRE) assay, optical density at 660 nm over time; conditions: 4 ug/mL imipenem; 8 strains harboring carbapenemase genes
Experimental: BacT/ALERT® SA bottles were inoculated with 10 mL of SPS-anticoagulated normal human blood and seeded with <100 CFU of S. aureus, E. faecalis, E. faecium, E. coli and K. pneumoniae isolates. Within 15 minutes of flagging positive, the bottles were manually unloaded and either tested immediately or kept on ice until tested. If chilled, a positive bottle was warmed in a 36° C. water bath for 15-20 minutes before removing samples. The positive broth dilutions were performed manually. […]
as §1, with “taken. […]” for “taken.”

[3] = system: E. faecalis strains; assay: Vancomycin-resistant enterococci (VRE) assay, optical density growth curves
Experimental: (§2) The BacT/ALERT® SA bottles were inoculated as described in Example A. The positive broth dilution for the […] was performed as follows: broth containing E. faecium or E. faecalis isolates was spun for 10 seconds @10,600 g in a 1.5 mL microcentrifuge tube to sediment red blood cells (RBC). One (1.0) mL of the RBC depleted supernatant was recovered and diluted into 4.0 mL of pre-warmed BacT/ALERT® SA media±6 μg/mL vancomycin. Thirty-one (31) E. faecium and 7 E. faecalis strains were tested (23 resistant and 15 sensitive).
(§3) To rapidly detect VRE in positive blood cultures, 38 broth samples containing E. faecium and E. faecalis strains were depleted of red blood cells and then diluted 1:5 in BacT/ALERT® SA blood culture media with and without 6 μg/mL of vancomycin (23 resistant and 15 sensitive strains).

[4] = system: E. faecium strains; assay: as above; conditions: 6 μg/mL vancomycin; all 17 resistant E. faecium strains
Experimental: as §2, §3

[5] = system: van B containing E. faecalis strains; assay: MIC of van B containing E. faecalis strains

With `CO[C@@]1(NC(=O)Cc2cccs2)C(=O)N2C(C(=O)O)=C(COC(N)=O)CS[C@@H]21` [cefoxitin] the “time to growth in cefoxitin media” value ([1]; 3 of the 5 MRSA strains) was ≤ 2 h, the “growth in cefoxitin media” value ([1]; 5 sensitive S. aureus strains, by 12 hours) was “failed to grow” and the “slopes of the growth curves” value ([1]; 5 sensitive strains, after 60 min equilibration, over 720 min) was “decreasing or flat slopes”. The “time to growth in cefoxitin media” value ([1]; Positive Control MRSA strain ATCC 43300) was ≤ 2.5 h and the “time to growth in cefoxitin media” value ([1]; weakly resistant MRSA strain (E-test MIC=16 ug/mL)) was ≤ 4.5 h.
In the case of `C[C@@H](O)[C@H]1C(=O)N2C(C(=O)O)=C(SCCN=CN)C[C@H]12` [imipenem], the “time to growth in the presence of imipenem” value [2] is reported as ≤ 2 h.
For `CN[C@H](CC(C)C)C(=O)N[C@H]1C(=O)N[C@@H](CC(N)=O)C(=O)N[C@H]2C(=O)N[C@H]3C(=O)N[C@H](C(=O)N[C@H](C(=O)O)c4cc(O)cc(O)c4-c4cc3ccc4O)[C@H](O)c3ccc(c(Cl)c3)Oc3cc2cc(c3O[C@@H]2O[C@H](CO)[C@@H](O)[C@H](O)[C@H]2O[C@H]2C[C@](C)(N)[C@H](O)[C@H](C)O2)Oc2ccc(cc2Cl)[C@H]1O` [vancomycin], the “time to detection of growth with vancomycin” value (“time to detection of growth” below) ([3]; 6 μg/mL vancomycin, three low MIC van B containing E. faecalis strains) was 3 to 4 h, the “time to detection of growth” value ([3]; delayed van B isolates, starting subculture optical density raised from <0.10 to 0.25-0.45, data not shown) was 2 to 2.5 h and the “time to detection of growth” value [4] was ≤ 2 h. The MIC ([5]; CLSI Positive Control strain ATCC 51299, in µg/mL) was 16-24 and the MIC ([5]; Enterococcus faecalis, three van B containing E. faecalis strains, read-out: MIC) was 16 to 64 µg/mL.
